Reference: patent US20230081529A1 (CBSBIOSCIENCE CO., LTD, priority 2020, published 2023)
Where two headings read alike, the source gives them in different places.

What was measured:
[1] = test system: hepatocellular carcinoma (HCC) patients; settings: systemic first-line therapy without predictive biomarkers; cited from earlier work
[2] = test system: hepatocellular carcinoma (HCC) patients; test: Sorafenib treatment of 73 HCC patients: tumor response (mRECIST) and Kaplan-Meier survival; assay type: in vivo, human
Text: This study included 73 histological confirmed HCC patients. […] All tissues were obtained by needle biopsy. The patients were from Ajou Medical Center (AMC). The protocol of this study was approved by the Institutional Review Boards of Ajou Medical Center (AMC).
From a DCR perspective, patients with complete response (CR), partial response (PR) and stable disease (SD) were considered as responders whereas those with progressive disease (PD) were judged as non-responders.
Relationship between treatment response and clinicopathologic variables was evaluated using Chi square tests or Fishers exact tests. Gene expression data were tested for normality with the Shapiro-Wilk test. […] Receiver operating characteristic (ROC) curve analysis was used to determine accuracy of threshold values classifying tumor responders and non-responders using gene signature. Kaplan-Meier survival (KM) curves were calculated using death as end point in overall survival (OS) and using death and progression disease as end point in progression free survival (PFS). The difference in KM curves was examined by log-rank test and the difference in hazard ratio was examined by Cox regression analysis. […] Significance was set at P<0.05 (two-tailed). All statistics were performed in R version 3.3.3 (R Development Core Team, https:/www.r-project.org/).

[3] = entire patients treated with sorafenib
[4] = predicted good responders (8-gene signature)
[5] = predicted poor responders (8-gene signature)

For `CNC(=O)c1cc(Oc2ccc(NC(=O)Nc3ccc(Cl)c(C(F)(F)F)c3)cc2)ccn1` [sorafenib], the Median overall survival [1] is given as 10.7 months, the objective response rates [1] is given as 2% and the Median overall survival [2, 3] is given as 11.3 months. The Median progression-free survival [2, 3] was 2.9 months, the “Median time to progression” value [2, 3] was 2.9 months and the disease control rate ([2]; entire patients, before selection with the 8-gene signature) was 28.77%. The “Tumor response: Progressive disease, number of patients” value ([2]; non-responders (n = 52)) was 52, the “Tumor response: Progressive disease, share of group” value ([2]; non-responders (n = 52)) was 100.0% and the “number of non-responders (PD)” value ([2]; of 73 patients treated with sorafenib) was 52. For the same molecule, the disease control rate ([2]; patients selected with the 8-gene signature) was 85.71%, the Median progression-free survival [2, 4] was 5.8 months and the “Median time to progression” value [2, 4] was 5.8 months. For the same molecule, the Median overall survival [2, 5] was 6.7 months, the Median progression-free survival [2, 5] was 2.8 months and the “Median time to progression” value [2, 5] was 2.8 months. For the same molecule, the “Tumor response: Complete response, number of patients” value ([2]; responders (n = 21)) was 2, the “Tumor response: Complete response, share of group” value ([2]; responders (n = 21)) was 9.5% and the “Tumor response: Partial response, number of patients” value ([2]; responders (n = 21)) was 9. The “Tumor response: Partial response, share of group” value ([2]; responders (n = 21)) was 42.9%, the “Tumor response: Stable disease, number of patients” value ([2]; responders (n = 21)) was 10 and the “Tumor response: Stable disease, share of group” value ([2]; responders (n = 21)) was 47.6%.
